Results from patent US11459335B2, “N/O-linked Degrons and Degronimers for protein degradation” (C4 Therapeutics, Inc., priority 2017, dated 2022).
pKd: −log10 of the molar value.

target: CRBN-DDB1 (Homo sapiens (Human), UniProt Q96SW2); test: Fluorescence polarization (FP) assay for compound ligand binding to CRBN-DDB1; details: FP displacement of (−)-Thalidomide-Alexa Fluor or Pomalidomide-fluorescein probe (5 nM), 400 nM CRBN-DDB1, 60 min room temperature; Additional Compounds of the Present Invention
Sequence (Q96SW2 whole entry): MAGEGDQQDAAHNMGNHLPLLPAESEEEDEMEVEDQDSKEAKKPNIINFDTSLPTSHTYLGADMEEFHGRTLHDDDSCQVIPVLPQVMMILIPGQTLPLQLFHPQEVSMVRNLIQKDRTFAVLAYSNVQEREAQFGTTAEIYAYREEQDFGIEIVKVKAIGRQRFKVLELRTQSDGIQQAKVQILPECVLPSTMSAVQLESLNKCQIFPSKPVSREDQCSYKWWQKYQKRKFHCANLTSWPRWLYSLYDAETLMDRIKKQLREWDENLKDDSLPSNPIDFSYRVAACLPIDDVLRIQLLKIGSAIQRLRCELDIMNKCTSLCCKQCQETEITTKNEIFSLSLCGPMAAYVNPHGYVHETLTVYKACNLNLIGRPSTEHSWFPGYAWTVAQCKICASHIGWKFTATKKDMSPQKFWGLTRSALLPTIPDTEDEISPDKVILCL
Sequence (Q16531 whole entry partner): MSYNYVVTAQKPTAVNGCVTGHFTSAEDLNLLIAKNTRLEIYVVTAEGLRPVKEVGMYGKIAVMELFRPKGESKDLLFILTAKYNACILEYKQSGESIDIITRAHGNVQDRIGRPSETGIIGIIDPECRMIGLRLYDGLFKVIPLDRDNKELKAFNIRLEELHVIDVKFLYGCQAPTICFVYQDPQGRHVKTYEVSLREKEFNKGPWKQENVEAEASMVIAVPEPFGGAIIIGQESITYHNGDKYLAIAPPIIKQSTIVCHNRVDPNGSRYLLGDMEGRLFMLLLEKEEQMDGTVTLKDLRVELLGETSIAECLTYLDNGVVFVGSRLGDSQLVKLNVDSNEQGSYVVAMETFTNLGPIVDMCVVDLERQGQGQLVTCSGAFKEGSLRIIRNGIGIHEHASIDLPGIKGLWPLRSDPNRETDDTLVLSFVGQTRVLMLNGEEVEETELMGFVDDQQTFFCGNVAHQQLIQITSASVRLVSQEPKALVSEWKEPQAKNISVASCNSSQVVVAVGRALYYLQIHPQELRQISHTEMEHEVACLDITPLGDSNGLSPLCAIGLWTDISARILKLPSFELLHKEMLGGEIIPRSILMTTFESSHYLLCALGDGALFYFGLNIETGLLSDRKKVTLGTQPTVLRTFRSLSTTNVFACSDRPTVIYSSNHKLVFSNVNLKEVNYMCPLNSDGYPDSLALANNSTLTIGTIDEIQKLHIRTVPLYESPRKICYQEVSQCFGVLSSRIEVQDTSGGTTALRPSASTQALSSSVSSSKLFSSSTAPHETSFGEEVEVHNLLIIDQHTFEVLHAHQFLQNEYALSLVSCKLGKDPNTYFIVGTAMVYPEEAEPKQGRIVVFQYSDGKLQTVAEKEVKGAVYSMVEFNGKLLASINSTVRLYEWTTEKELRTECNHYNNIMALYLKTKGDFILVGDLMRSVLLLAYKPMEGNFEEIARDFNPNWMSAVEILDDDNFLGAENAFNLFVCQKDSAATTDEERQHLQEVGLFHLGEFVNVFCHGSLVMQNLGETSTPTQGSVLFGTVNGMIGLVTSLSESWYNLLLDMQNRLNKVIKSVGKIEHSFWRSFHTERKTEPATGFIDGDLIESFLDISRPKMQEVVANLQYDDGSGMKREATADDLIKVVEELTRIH
Experimental: Measuring compound ligand binding to CRBN-DDB1 was carried out using an established sensitive and quantitative in vitro fluorescence polarization (FP) based binding assay. […] Compounds were dispensed from serially diluted DMSO stock into black 384-well compatible fluorescence polarization plates using an Echo acoustic dispenser. Compound binding to CRBN-DDB1 was measured by displacement of either a (−)-Thalidomide-Alexa Fluor® or Pornalidomide-fluorescein conjugated probe dye. […] Matching control wells excluding CRBN-DDB1 were used to correct for background fluorescence. Plates were read on an Envision plate reader with appropriate FP filter sets. The corrected S (perpendicular) and P (parallel) values were used to calculate fluorescence polarization (FP) with the following equation: FP=1000*(S−G*P)/(S+G*P).

Row | Compound | pKd
1 | CC(=O)c1ccccc1OC1CCC(=O)NC1=O (stereo not drawn) [Compound 153] | 4.00 to 4.30
2 | Cn1nc(NC2CCC(=O)NC2=O)cc1-c1ccccc1 (stereo not drawn) [Compound 157, 3-(1-Methyl-5-phenyl-1H-pyrazol-3-ylamino)-piperidine-2,6-dione] | 4.30 to 5.00
3 | O=C1CCC(Nc2ccc3cccnc3c2)C(=O)N1 (stereo not drawn) [Compound 163] | 4.30 to 5.00
4 | O=C1CC[C@@H](O[C@H]2CCN(c3ccccc3)C2=O)C(=O)N1 (single isomer, unassigned) [Compound 161, 3-(2-Oxo-1-phenyl-pyrrolidin-3-yloxy)-piperidine-2,6-dione] | 4.00 to 4.30
5 | CN1CCN(c2ccc(OC3CCC(=O)NC3=O)cc2)CC1 (stereo not drawn) [Compound 130] | 4.30 to 5.00
6 | O=C1CC[C@H](O[C@H]2CCN(c3ccccc3)C2=O)C(=O)N1 (single isomer, unassigned) [Compound 162, 3-(2-Oxo-1-phenyl-pyrrolidin-3-yloxy)-piperidine-2,6-dione] | 4.30 to 5.00
7 | CC(=O)c1cc(C)ccc1OC1CCC(=O)NC1=O (stereo not drawn) [Compound 146] | 4.00 to 4.30
8 | CC(C)(C)OC(=O)N1CCN(c2ccc(NC3CCC(=O)NC3=O)cn2)CC1 (stereo not drawn) [Compound 156, 4-[5-(2,6-Dioxo-piperidin-3-ylamino)-pyridin-2-yl]-piperazine-1-carboxylic Acid tert-butyl Ester] | 4.30 to 5.00
9 | CS(=O)(=O)c1cccc(OC2CCC(=O)NC2=O)c1 (stereo not drawn) [Compound 144] | 4.30 to 5.00
10 | COC(=O)c1ccccc1OC1CCC(=O)NC1=O (stereo not drawn) [Compound 155] | 4.00 to 4.30
11 | Cc1ccn(-c2ccc(OC3CCC(=O)NC3=O)cc2)n1 (stereo not drawn) [Compound 143] | 4.30 to 5.00
12 | O=C1CCC(Oc2ccccc2)C(=O)N1 (stereo not drawn) [Compound 129] | 4.30 to 5.00
13 | Cn1cnc2cc(OC3CCC(=O)NC3=O)ccc21 (stereo not drawn) [Compound 142] | 4.30 to 5.00
14 | CC(C)(C)OC(=O)N1CCN(c2ccc(COC3CCC(=O)NC3=O)cc2)CC1 (stereo not drawn) [Compound 131, 4-[4-(2,6-Dioxo-piperidin-3-yloxymethyl)-phenyl]-piperazine-1-carboxylic Acid tert-butyl Ester] | 4.30 to 5.00
15 | O=C1CCC(Nc2ccc(N3CCNCC3)nc2)C(=O)N1 (stereo not drawn) [Compound 158, 3-(6-Piperazin-1-yl-pyridin-3-ylamino)-piperidine-2,6-dione] | 4.30 to 5.00

same assay, conditions: FP displacement of (−)-Thalidomide-Alexa Fluor or Pomalidomide-fluorescein probe (5 nM), 400 nM CRBN-DDB1, 60 min room temperature; Degrons, Compounds of the Present Invention

Row | Compound | pKd
16 | CN(CC(N)=O)C1CCC(=O)NC1=O (stereo not drawn) [Compound 110] | 4.30 to 5.00
17 | O=C1CCC(Nc2ccccc2N2CCOCC2)C(=O)N1 (stereo not drawn) [Compound 14] | 4.30 to 5.00
18 | O=C1CCC(Nc2cnn(-c3ccccc3)c2)C(=O)N1 (stereo not drawn) [Compound 75] | 4.30 to 5.00
19 | O=C1CCC(Nc2cccc(CN3CCCCC3)c2)C(=O)N1 (stereo not drawn) [Compound 72] | 4.30 to 5.00
20 | CN(C1CC(=O)N(c2ccccc2)C1)C1CCC(=O)NC1=O (stereo not drawn) [Compound 105] | 4.00 to 4.30
21 | CN1Cc2ccc(NC3CCC(=O)NC3=O)cc2C1=O (stereo not drawn) [Compound 93] | 4.00 to 4.30
22 | O=C1CCC(Nc2ccc(N3CCNCC3)cc2)C(=O)N1 (stereo not drawn) [Compound 89] | 4.30 to 5.00
23 | CC(C)(C)OC(=O)N1CCN(c2nccc(NC3CCC(=O)NC3=O)n2)CC1 (stereo not drawn) [Compound 121] | 4.00 to 4.30
24 | O=C1CCC(Nc2ccc(C3CCNCC3)cn2)C(=O)N1 (stereo not drawn) [Compound 84] | 4.30 to 5.00
25 | CN(C1CN(C(=O)OC(C)(C)C)C1)C1CCC(=O)NC1=O (stereo not drawn) [Compound 98] | 4.00 to 4.30
26 | O=C1CCC(Nc2ccccc2)C(=O)N1 (stereo not drawn) [Compound 125] | 4.30 to 5.00
27 | CN(c1cccc(N2CCNCC2)c1)C1CCC(=O)NC1=O (stereo not drawn) [Compound 87] | 4.30 to 5.00
28 | O=C1CCC(Nc2ccc3ccccc3n2)C(=O)N1 (stereo not drawn) [Compound 120] | 4.30 to 5.00
29 | COc1cc(OC)nc(NC2CCC(=O)NC2=O)n1 (stereo not drawn) [Compound 113] | 4.00 to 4.30
30 | O=C1CCC(Nc2ccn(-c3ccccc3)n2)C(=O)N1 (stereo not drawn) [Compound 114] | 4.30 to 5.00
31 | CC(C)(C)OC(=O)N1CCC(c2ccc(NC3CCC(=O)NC3=O)nc2)CC1 (stereo not drawn) [Compound 123] | 4.30 to 5.00
32 | O=C1CCC(Nc2cccnc2)C(=O)N1 (stereo not drawn) [Compound 80] | 4.30 to 5.00
33 | COc1ccc(N(C)C2CCC(=O)NC2=O)c(OC)c1 (stereo not drawn) [Compound 69] | 4.30 to 5.00
34 | O=C1CCC(Nc2cccnc2)C(=O)N1 (stereo not drawn) [Compound 115] | 4.30 to 5.00
35 | O=C1CCC(Nc2cnn(C3CCNCC3)c2)C(=O)N1 (stereo not drawn) [Compound 94] | 4.30 to 5.00
36 | CN(CC(=O)Nc1ccccc1)C1CCC(=O)NC1=O (stereo not drawn) [Compound 108] | 4.30 to 5.00

Row | Compound | pKd
37 | CN1CC(N(C)C2CCC(=O)NC2=O)CC1=O (stereo not drawn) [Compound 104] | 4.00 to 4.30
38 | Cc1cnc(NC2CCC(=O)NC2=O)cn1 (stereo not drawn) [Compound 124] | 4.30 to 5.00
39 | CN(c1ccc(F)cc1F)C1CCC(=O)NC1=O (stereo not drawn) [Compound 2] | 4.00 to 4.30
40 | CN1CCc2ccc(NC3CCC(=O)NC3=O)cc2C1=O (stereo not drawn) [Compound 76] | 4.30 to 5.00
41 | CN(C1CN(c2ccccc2)C1)C1CCC(=O)NC1=O (stereo not drawn) [Compound 103] | 4.30 to 5.00
42 | O=C1CCC(Nc2ccccc2CN2CCCC2)C(=O)N1 (stereo not drawn) [Compound 71] | 4.30 to 5.00
43 | O=C1CCC(Nc2cc(C(=O)N3CCCC3)ccn2)C(=O)N1 (stereo not drawn) [Compound 119] | 4.00 to 4.30
44 | O=C1CCC(Nc2ccc(F)cc2)C(=O)N1 (stereo not drawn) [Compound 8] | 4.30 to 5.00
45 | CC(C)(C)OC(=O)N1Cc2cnc(NC3CCC(=O)NC3=O)nc2C1 (stereo not drawn) [Compound 117] | 4.00 to 4.30
46 | COc1ccc(C(F)(F)F)cc1NC1CCC(=O)NC1=O (stereo not drawn) [Compound 24] | 4.30 to 5.00
47 | CN(c1ccc(F)cc1)C1CCC(=O)NC1=O (stereo not drawn) [Compound 17] | 4.30 to 5.00
48 | O=C1CCC(Nc2c(F)cccc2F)C(=O)N1 (stereo not drawn) [Compound 63] | 4.30 to 5.00
49 | O=C1CCC(Nc2ccc3c(c2)CCNC3)C(=O)N1 (stereo not drawn) [Compound 83] | 4.30 to 5.00
50 | NCc1cccc(NC2CCC(=O)NC2=O)c1 (stereo not drawn) [Compound 91] | 4.30 to 5.00
51 | Cn1cnc2cc(NC3CCC(=O)NC3=O)ccc21 (stereo not drawn) [Compound 78] | 4.30 to 5.00
52 | Cn1nc(NC2CCC(=O)NC2=O)c2ccccc21 (stereo not drawn) [Compound 116] | 4.30 to 5.00
53 | O=C1CCC(Nc2ccccc2OC(F)(F)F)C(=O)N1 (stereo not drawn) [Compound 21] | 4.30 to 5.00
54 | CC(C)(C)OC(=O)N1CCC(n2cc(NC3CCC(=O)NC3=O)cn2)CC1 (stereo not drawn) [Compound 73] | 4.00 to 4.30
55 | NCc1ccc(NC2CCC(=O)NC2=O)cc1 (stereo not drawn) [Compound 90] | 4.30 to 5.00
56 | Cn1cnc2c(NC3CCC(=O)NC3=O)cccc21 (stereo not drawn) [Compound 74] | 4.30 to 5.00
57 | COc1ccc(C(C)(C)C)cc1NC1CCC(=O)NC1=O (stereo not drawn) [Compound 25] | 4.00 to 4.30
